Experimental data published in ChEMBL document CHEMBL1201862, “PubChem BioAssay data set” (2004).
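Dose response: 5 concentrations. Exposure: 48 h. Format: 96-well plates. Endpoint: linear interpolation; highest concentration if not reached. Abbreviation: GI50, concentration required for 50% inhibition of growth.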 Active and inactive are the calls of the source. Rule as the data show it: active = GI50 up to about 1.1 µM and inactive = higher.

How the values were obtained:
Experiment in all cases: DTP human tumour cell line panel, 48 h
HCT-116 = tested on: HCT-116
NCI-H460 = tested on: NCI-H460
TK-10 = tested on: TK-10
RXF 393 = tested on: RXF 393
EKVX = tested on: EKVX
IGROV-1 = tested on: IGROV-1
LOX IMVI = tested on: LOX IMVI
K562 = tested on: K562
786-0 = tested on: 786-0
BT-549 = tested on: BT-549
OVCAR-5 = tested on: OVCAR-5
M14 = tested on: M14
T47D = tested on: T47D
SR = tested on: SR
UACC-62 = tested on: UACC-62
SF-295 = tested on: SF-295
MDA-MB-435 = tested on: MDA-MB-435
MDA-N = tested on: MDA-N
HOP-92 = tested on: HOP-92
PC-3 = tested on: PC-3

## OC1(c2ccc3ccccc3c2)c2c(c3ccccc3c3ccccc23)C2=NCCN21 (stereo not given)
HCT-116
  GI50: 2.88 µM (inactive)
NCI-H460
  GI50: 4.3 µM (inactive)
TK-10
  GI50: 7.98 µM (inactive)
RXF 393
  GI50: 2.47 µM (inactive)
EKVX
  GI50: 5.51 µM (inactive)
IGROV-1
  GI50: 3.85 µM (inactive)
LOX IMVI
  GI50: 2.28 µM (inactive)
K562
  GI50: 3.81 µM (inactive)
786-0
  GI50: 7.5 µM (inactive)
BT-549
  GI50: 14.7 µM (inactive)
OVCAR-5
  GI50: 7.78 µM (inactive)
M14
  GI50: 2.12 µM (inactive)
T47D
  GI50: 4.45 µM (inactive)
SR
  GI50: 3.08 µM (inactive)
UACC-62
  GI50: 13.5 µM (inactive)
SF-295
  GI50: 3.09 µM (inactive)
MDA-MB-435
  GI50: 2.17 µM (inactive)
MDA-N
  GI50: 1.96 µM (inactive)
HOP-92
  GI50: 7.18 µM (inactive)
PC-3
  GI50: 4.54 µM (inactive)

## COc1ccc(C(=O)Cn2c(C(C)=O)nc3ccccc32)cc1
HCT-116
  GI50: 6.15 µM (inactive)
NCI-H460
  GI50: 4.21 µM (inactive)
TK-10
  GI50: > 76.6 µM (inactive)
RXF 393
  GI50: > 56.4 µM (inactive)
EKVX
  GI50: 76.9 µM (inactive)
IGROV-1
  GI50: 6.73 µM (inactive)
LOX IMVI
  GI50: 2.91 µM (inactive)
K562
  GI50: 4.4 µM (inactive)
786-0
  GI50: 6.59 µM (inactive)
BT-549
  GI50: 8.45 µM (inactive)
OVCAR-5
  GI50: 44.4 µM (inactive)
M14
  GI50: 17.5 µM (inactive)
T47D
  GI50: 5.28 µM (inactive)
SR
  GI50: 4.92 µM (inactive)
UACC-62
  GI50: 6.89 µM (inactive)
SF-295
  GI50: 13.1 µM (inactive)
MDA-MB-435
  GI50: 13.5 µM (inactive)
MDA-N
  GI50: 10.7 µM (inactive)
HOP-92
  GI50: 12.7 µM (inactive)
PC-3
  GI50: 6.98 µM (inactive)

## C[C@H](CCC(=O)O[C@@H]1CC[C@@]2(C)C(CC[C@H]3[C@@H]4CC[C@H]([C@H](C)CCc5nc6ccccc6[nH]5)[C@@]4(C)CC[C@@H]32)C1)[C@H]1CC[C@H]2[C@@H]3CCC4C[C@H](O)CC[C@]4(C)[C@H]3CC[C@]12C (stereo not given in full)
HCT-116
  GI50: > 100 µM (inactive)
NCI-H460
  GI50: 0.518 µM (active)
TK-10
  GI50: > 100 µM (inactive)
RXF 393
  GI50: > 100 µM (inactive)
EKVX
  GI50: > 100 µM (inactive)
IGROV-1
  GI50: 1.33 µM (inactive)
LOX IMVI
  GI50: 3.95 µM (inactive)
K562
  GI50: > 100 µM (inactive)
786-0
  GI50: 11.5 µM (inactive)
BT-549
  GI50: > 100 µM (inactive)
OVCAR-5
  GI50: > 100 µM (inactive)
M14
  GI50: > 100 µM (inactive)
T47D
  GI50: 5.04 µM (inactive)
SR
  GI50: > 100 µM (inactive)
UACC-62
  GI50: > 100 µM (inactive)
SF-295
  GI50: 16.7 µM (inactive)
MDA-MB-435
  GI50: > 100 µM (inactive)
MDA-N
  GI50: > 100 µM (inactive)
HOP-92
  GI50: > 100 µM (inactive)
PC-3
  GI50: > 100 µM (inactive)

## Cc1nnc(S(=O)(=O)c2ccc(/N=N/c3c(N)nc(N)nc3N)cc2)s1
HCT-116
  GI50: > 100 µM (inactive)
NCI-H460
  GI50: > 100 µM (inactive)
TK-10
  GI50: > 100 µM (inactive)
RXF 393
  GI50: > 100 µM (inactive)
EKVX
  GI50: > 100 µM (inactive)
IGROV-1
  GI50: > 100 µM (inactive)
LOX IMVI
  GI50: > 100 µM (inactive)
K562
  GI50: > 100 µM (inactive)
786-0
  GI50: > 100 µM (inactive)
BT-549
  GI50: > 100 µM (inactive)
OVCAR-5
  GI50: > 100 µM (inactive)
M14
  GI50: > 100 µM (inactive)
T47D
  GI50: > 100 µM (inactive)
SR
  GI50: > 100 µM (inactive)
UACC-62
  GI50: > 100 µM (inactive)
SF-295
  GI50: > 100 µM (inactive)
MDA-MB-435
  GI50: > 100 µM (inactive)
MDA-N
  GI50: > 100 µM (inactive)
HOP-92
  GI50: > 100 µM (inactive)
PC-3
  GI50: > 100 µM (inactive)

## C[n+]1c(Cl)cn2c3nc4ccccc4nc3c([O-])c(C#N)c21
HCT-116
  GI50: > 100 µM (inactive)
NCI-H460
  GI50: 9.48 µM (inactive)
TK-10
  GI50: > 10 µM (inactive)
RXF 393
  GI50: > 100 µM (inactive)
EKVX
  GI50: > 100 µM (inactive)
IGROV-1
  GI50: > 100 µM (inactive)
LOX IMVI
  GI50: > 100 µM (inactive)
K562
  GI50: > 100 µM (inactive)
786-0
  GI50: > 100 µM (inactive)
BT-549
  GI50: > 100 µM (inactive)
OVCAR-5
  GI50: > 10 µM (inactive)
M14
  GI50: > 100 µM (inactive)
T47D
  GI50: 41.7 µM (inactive)
SR
  GI50: > 74.8 µM (inactive)
UACC-62
  GI50: > 92.7 µM (inactive)
SF-295
  GI50: > 100 µM (inactive)
MDA-MB-435
  GI50: > 100 µM (inactive)
MDA-N
  GI50: > 100 µM (inactive)
HOP-92
  GI50: > 100 µM (inactive)
PC-3
  GI50: > 100 µM (inactive)
